Laboratory results from ChEMBL document CHEMBL1129505, “Time-dependent inactivation of aromatase by 6-alkylandrosta-1,4-diene-3,17-diones. Effects of length and configuration of 6-alkyl group” (J Med Chem, 1996).

Columns and labels:
Aromatase [1] = target: T1, Aromatase (Homo sapiens, UniProt P11511); experiment: Inactivation constant (Ki) for time-dependent inactivation of Cytochrome P450 19A1; NT= time-dependent inactivation not observed
T1 sequence (P11511 whole entry): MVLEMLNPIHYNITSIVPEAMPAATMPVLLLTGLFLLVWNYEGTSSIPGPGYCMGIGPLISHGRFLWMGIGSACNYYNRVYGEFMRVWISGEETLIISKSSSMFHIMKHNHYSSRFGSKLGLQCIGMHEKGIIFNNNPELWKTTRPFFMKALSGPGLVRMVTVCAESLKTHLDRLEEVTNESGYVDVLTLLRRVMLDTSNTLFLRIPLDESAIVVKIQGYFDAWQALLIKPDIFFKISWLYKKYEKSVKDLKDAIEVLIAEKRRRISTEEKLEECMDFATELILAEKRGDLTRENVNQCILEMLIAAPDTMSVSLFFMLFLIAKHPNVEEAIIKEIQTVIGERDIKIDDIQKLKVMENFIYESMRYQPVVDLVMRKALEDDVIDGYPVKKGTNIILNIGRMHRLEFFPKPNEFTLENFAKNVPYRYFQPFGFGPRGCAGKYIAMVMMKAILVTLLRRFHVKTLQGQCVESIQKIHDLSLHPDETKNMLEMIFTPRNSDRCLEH

Aromatase [2] = target: T1, Aromatase; experiment: Catalytic rate constant for time dependent inactivation of Cytochrome P450 19A1; NT= time-dependent inactivation not observed
Aromatase [3] = target: T1, Aromatase; experiment: In vitro inhibitory activity against Cytochrome P450 19A1 in human placental microsomes; design: species or system Placenta
Aromatase [4] = target: T1, Aromatase; experiment: Apparent inhibition constant (Ki) Cytochrome P450 19A1; details: read-out: Ki app
CYP19A1 (aromatase) = target: T2, CYP19A1 (aromatase) (Homo sapiens, UniProt P11511); experiment: Catalytic rate constant for time dependent inactivation of Cytochrome P450 19A1
T2 sequence (P11511 whole entry): T1 sequence (P11511 whole entry)

Aromatase [5] = target: T1, Aromatase; experiment: Inactivation constant (Ki) for time-dependent inactivation of Cytochrome P450 19A1

SMILES | Ki (Aromatase [1]) | K inact (Aromatase [2]) | IC50 (Aromatase [3]) | Ki (Aromatase [4]) | kinact (CYP19A1 (aromatase)) | Ki (Aromatase [5])
CCCCCC[C@@H]1CC2C(CCC3(C)C(=O)CCC23)C2(C)C=CC(=O)C=C12 (stereo not given in full) | Inactivation not observed | Inactivation not observed | 76 nM | 8 nM |  | 
CCCCCC[C@H]1CC2C(CCC3(C)C(=O)CCC23)C2(C)C=CC(=O)C=C12 (stereo not given in full) |  |  | 280 nM | 25 nM | 0.000833 s⁻¹ | 650 nM
CCCCC[C@H]1CC2C(CCC3(C)C(=O)CCC23)C2(C)C=CC(=O)C=C12 (stereo not given in full) | Inactivation not observed | Inactivation not observed | 140 nM | 11 nM |  | 
CCCCCCC[C@H]1CC2C(CCC3(C)C(=O)CCC23)C2(C)C=CC(=O)C=C12 (stereo not given in full) | Inactivation not observed | Inactivation not observed | 250 nM | 20 nM |  | 
CCCCCCC[C@@H]1CC2C(CCC3(C)C(=O)CCC23)C2(C)C=CC(=O)C=C12 (stereo not given in full) | Inactivation not observed | Inactivation not observed | 60 nM | 7.8 nM |  | 
C[C@H]1CC2C(CCC3(C)C(=O)CCC23)C2(C)C=CC(=O)C=C12 (stereo not given in full) |  |  |  |  | 0.0008 s⁻¹ | 
CCCCC[C@@H]1CC2C(CCC3(C)C(=O)CCC23)C2(C)C=CC(=O)C=C12 (stereo not given in full) | Inactivation not observed | Inactivation not observed | 54 nM | 5 nM |  | 
CCC[C@@H]1CC2C(CCC3(C)C(=O)CCC23)C2(C)C=CC(=O)C=C12 (stereo not given in full) | Inactivation not observed | Inactivation not observed | 60 nM | 7 nM |  | 
CC[C@@H]1CC2C(CCC3(C)C(=O)CCC23)C2(C)C=CC(=O)C=C12 (stereo not given in full) | Inactivation not observed | Inactivation not observed | 54 nM | 4.7 nM |  | 
C[C@@H]1CC2C(CCC3(C)C(=O)CCC23)C2(C)C=CC(=O)C=C12 (stereo not given in full) |  |  |  |  | 0.00102 s⁻¹ | 
CCC[C@H]1CC2C(CCC3(C)C(=O)CCC23)C2(C)C=CC(=O)C=C12 (stereo not given in full) |  |  | 270 nM | 22 nM | 0.000733 s⁻¹ | 339 nM
CCCC[C@@H]1CC2C(CCC3(C)C(=O)CCC23)C2(C)C=CC(=O)C=C12 (stereo not given in full) | Inactivation not observed | Inactivation not observed | 180 nM | 14 nM |  | 
CC[C@H]1CC2C(CCC3(C)C(=O)CCC23)C2(C)C=CC(=O)C=C12 (stereo not given in full) |  |  | 250 nM | 19 nM | 0.00108 s⁻¹ | 196 nM
CCCC[C@H]1CC2C(CCC3(C)C(=O)CCC23)C2(C)C=CC(=O)C=C12 (stereo not given in full) |  |  | 200 nM | 16 nM | 0.000483 s⁻¹ | 571 nM
